Measurements from patent US12065443B2, “Compounds and pharmaceutical compositions thereof for the treatment of diseases” (priority 2017, dated 2024).
pEC50, pIC50: −log10 of the molar value. Where two headings read alike, the source gives them in different places.

Key:
[1] = tested on: LPS-induced TNFα secretion in monocyte-derived macrophages (MdM); test: MdM assay: LPS-triggered TNFα (ELISA); type: cell-based, human; details: Homo sapiens, Macrophage, LPS-triggered TNFα inhibition
Summary of the method: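 Human CD14+ monocytes isolated from buffy-coat PBMCs by magnetic beads, differentiated to macrophages; on day 10 compound preincubated 1 h at 37 °C, then LPS 200 ng/mL added (0.2% DMSO). Supernatant taken after 20 h; TNFα quantified by sandwich ELISA against standard curve.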

SIK1 [2] = biological target: T1, SIK1 (Homo sapiens, UniProt P57059); test: biochemical; details: 33P radioactive SIK kinase assay, AMARA peptide, 10 μM ATP; read-out: SIK1 IC50
T1 construct: purchased Carna Biosciences 02-131
Summary of the method: (§1)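 Radiometric assay: SIK1, SIK2 or SIK3 phosphorylates AMARA peptide using unlabelled plus [^33P]-γ-ATP, reaction started by ATP addition. Stopped with 150 mM phosphoric acid, filter-harvested and washed; incorporated ^33P counted by scintillation. Controls: 1% DMSO and 10 μM staurosporine final.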

SIK3 [3] = biological target: T2, SIK3 (Homo sapiens, UniProt Q9Y2K2); test: biochemical
T2 construct: purchased SignalChem S12-11G-100
Summary of the method: as §1

SIK2 [4] = biological target: T3, SIK2 (Homo sapiens, UniProt Q9H0K1); test: biochemical; details: 33P radioactive SIK kinase assay, AMARA peptide, 10 μM ATP
T3 construct: purchased ThermoFisher Scientific PV4792
Summary of the method: as §1

SIK1 [5] = biological target: T1, SIK1; test: biochemical; details: ADP-Glo SIK kinase assay
Procedure: (§2) The ADP-Glo™ kinase assay is a luminescent technology assay which measures the ADP formed from a kinase reaction. […] In a second step the kinase reactions are terminated and all the remaining ATP is depleted. In a final step the ADP is converted into ATP and this newly synthesized ATP is measured by using a luciferase/luciferin reaction. The generated light is measured using an Envision plate reader, wherein the luminescent signal obtained positively correlates with the kinase activity.
(§3) 1% DMSO and 10 μM staurosporine final concentrations are used as negative and positive controls.
(§4) 2 μL enzyme-substrate mixture is added to the assay plates.
(§5) The reaction is started by adding 2 μL diluted ATP on the assay plates. Plates are centrifuged for a few seconds at 1000 rpm and gently shaken for 2 min followed by an incubation at RT for 120 min.
(§6) The reactions are stopped and the unconsumed ATP is depleted by adding 5 μL ADP-Glo Reagent (Promega, Cat #V912B) to the reaction. The plates are centrifuged for a few seconds at 1000 rpm and incubated at RT for 40 min (ATP depletion).
(§7) The ADP is converted to ATP and luciferase and luciferin is introduced to detect ATP by adding 10 μL Kinase Detection Reagent (Promega, Cat #V913B+V914B) to the reaction. The plates are centrifuged for a few seconds at 1000 rpm and incubated at RT for 30 min (ADP detection).
(§8) Luminescence is measured on an Envision plate reader (PerkinElmer Inc.).

SIK3 [6] = biological target: T2, SIK3; test: biochemical; details: ADP-Glo SIK kinase assay
Procedure: as §2, §3, §4, §5, §6, §7, §8

SIK2 [7] = biological target: T3, SIK2; test: biochemical; details: ADP-Glo SIK kinase assay
Procedure: as §2, §3, §4, §5, §6, §7, §8

[8] = tested on: LPS triggered IL-10 secretion in monocyte-derived macrophages (MdM); test: MdM assay: LPS-triggered IL-10 (ELISA); type: cell-based, human; details: maximal fold change vs LPS only, median across assays
Summary of the method: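 CD14+ monocytes isolated from human buffy-coat PBMCs and differentiated to macrophages for 10 days. Cells pre-treated with compound 1 h at 37° C (0.2% DMSO), then stimulated with 200 ng/mL LPS; IL-10 in supernatant at 2 h measured by ELISA (A450). Maximal fold change versus LPS only reported as median of two or more runs.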

T1 sequence (P57059 whole entry): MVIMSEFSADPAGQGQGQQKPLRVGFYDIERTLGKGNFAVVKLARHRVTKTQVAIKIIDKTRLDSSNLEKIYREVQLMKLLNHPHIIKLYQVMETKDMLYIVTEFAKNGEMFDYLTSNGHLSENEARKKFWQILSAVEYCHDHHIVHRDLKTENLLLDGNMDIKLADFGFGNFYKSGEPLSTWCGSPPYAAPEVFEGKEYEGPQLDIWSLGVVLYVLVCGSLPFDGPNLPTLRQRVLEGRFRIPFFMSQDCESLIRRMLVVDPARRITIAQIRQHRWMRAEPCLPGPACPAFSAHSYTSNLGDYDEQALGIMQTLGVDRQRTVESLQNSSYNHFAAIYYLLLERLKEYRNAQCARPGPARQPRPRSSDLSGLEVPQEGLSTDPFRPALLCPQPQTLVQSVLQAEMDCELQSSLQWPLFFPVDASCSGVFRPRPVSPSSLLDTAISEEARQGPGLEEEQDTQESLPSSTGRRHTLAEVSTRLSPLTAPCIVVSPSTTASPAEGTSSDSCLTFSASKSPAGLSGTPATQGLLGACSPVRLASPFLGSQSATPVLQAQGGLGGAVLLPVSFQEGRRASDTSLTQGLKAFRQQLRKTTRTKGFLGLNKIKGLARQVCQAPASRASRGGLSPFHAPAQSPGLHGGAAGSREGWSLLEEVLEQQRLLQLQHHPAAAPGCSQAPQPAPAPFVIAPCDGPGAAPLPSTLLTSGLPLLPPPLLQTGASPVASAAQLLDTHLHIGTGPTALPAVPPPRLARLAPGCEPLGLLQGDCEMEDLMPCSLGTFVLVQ
T2 sequence (Q9Y2K2 whole entry): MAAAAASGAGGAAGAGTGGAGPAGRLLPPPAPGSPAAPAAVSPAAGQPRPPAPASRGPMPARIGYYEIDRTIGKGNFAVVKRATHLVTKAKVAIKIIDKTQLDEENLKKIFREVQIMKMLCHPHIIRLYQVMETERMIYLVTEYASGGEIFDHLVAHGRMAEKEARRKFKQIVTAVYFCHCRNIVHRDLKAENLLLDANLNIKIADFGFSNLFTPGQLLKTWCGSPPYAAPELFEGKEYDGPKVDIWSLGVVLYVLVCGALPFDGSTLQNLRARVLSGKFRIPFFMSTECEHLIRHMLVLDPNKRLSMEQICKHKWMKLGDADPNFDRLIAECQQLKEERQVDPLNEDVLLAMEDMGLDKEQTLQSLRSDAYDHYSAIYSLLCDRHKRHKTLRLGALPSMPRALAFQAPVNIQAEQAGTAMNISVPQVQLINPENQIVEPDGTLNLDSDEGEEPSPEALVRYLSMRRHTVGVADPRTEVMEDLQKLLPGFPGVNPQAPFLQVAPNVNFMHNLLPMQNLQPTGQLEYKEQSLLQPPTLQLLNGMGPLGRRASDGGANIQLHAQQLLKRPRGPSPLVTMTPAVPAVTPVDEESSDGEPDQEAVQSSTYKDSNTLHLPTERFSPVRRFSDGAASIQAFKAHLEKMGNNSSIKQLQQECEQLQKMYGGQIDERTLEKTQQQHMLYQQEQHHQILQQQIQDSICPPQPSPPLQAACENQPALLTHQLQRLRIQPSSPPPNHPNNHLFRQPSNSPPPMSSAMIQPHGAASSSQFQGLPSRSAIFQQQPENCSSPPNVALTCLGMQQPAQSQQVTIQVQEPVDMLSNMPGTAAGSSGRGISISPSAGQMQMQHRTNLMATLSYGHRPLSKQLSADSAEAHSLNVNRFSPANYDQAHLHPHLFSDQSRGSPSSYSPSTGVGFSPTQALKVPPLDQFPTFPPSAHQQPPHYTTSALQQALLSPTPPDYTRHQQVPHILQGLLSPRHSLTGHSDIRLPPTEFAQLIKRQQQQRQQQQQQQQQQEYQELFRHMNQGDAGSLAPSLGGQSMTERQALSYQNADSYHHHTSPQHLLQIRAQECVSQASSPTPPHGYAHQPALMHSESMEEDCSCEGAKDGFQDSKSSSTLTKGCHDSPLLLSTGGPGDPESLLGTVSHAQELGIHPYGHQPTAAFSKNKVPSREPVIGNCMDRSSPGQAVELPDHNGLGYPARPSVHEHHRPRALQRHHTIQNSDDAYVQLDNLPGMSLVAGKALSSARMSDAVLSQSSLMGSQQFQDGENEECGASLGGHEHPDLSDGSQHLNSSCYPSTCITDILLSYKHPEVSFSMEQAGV
T3 sequence (Q9H0K1 whole entry): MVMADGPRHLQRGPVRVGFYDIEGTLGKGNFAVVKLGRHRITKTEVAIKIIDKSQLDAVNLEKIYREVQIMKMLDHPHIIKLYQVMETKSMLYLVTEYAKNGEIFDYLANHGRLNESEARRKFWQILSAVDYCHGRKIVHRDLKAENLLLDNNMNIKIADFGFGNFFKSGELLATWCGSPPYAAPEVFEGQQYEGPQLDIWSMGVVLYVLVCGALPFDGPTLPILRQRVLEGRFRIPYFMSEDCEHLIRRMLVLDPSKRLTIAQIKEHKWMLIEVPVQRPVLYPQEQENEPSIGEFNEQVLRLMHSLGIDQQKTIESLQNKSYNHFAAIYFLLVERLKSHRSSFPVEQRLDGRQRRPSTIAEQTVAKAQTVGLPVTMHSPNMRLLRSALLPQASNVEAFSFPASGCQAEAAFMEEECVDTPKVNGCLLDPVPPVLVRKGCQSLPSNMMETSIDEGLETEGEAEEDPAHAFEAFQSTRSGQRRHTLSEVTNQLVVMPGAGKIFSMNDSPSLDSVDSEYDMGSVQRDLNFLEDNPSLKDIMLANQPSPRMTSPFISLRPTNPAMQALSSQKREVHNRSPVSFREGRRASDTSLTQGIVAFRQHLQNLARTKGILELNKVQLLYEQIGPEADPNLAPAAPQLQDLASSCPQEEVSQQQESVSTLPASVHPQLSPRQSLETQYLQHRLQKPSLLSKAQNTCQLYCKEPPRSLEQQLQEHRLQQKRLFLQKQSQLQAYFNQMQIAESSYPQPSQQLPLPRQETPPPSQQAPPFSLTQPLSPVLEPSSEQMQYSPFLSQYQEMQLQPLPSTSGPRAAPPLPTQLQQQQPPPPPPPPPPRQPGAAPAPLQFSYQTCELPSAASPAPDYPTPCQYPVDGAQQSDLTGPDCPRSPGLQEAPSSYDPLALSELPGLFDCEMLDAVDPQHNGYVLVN

Row | SMILES | pEC50 [1] | pIC50 (SIK1 [2]) | pIC50 (SIK3 [3]) | pIC50 (SIK2 [4]) | pIC50 (SIK1 [5]) | pIC50 (SIK3 [6]) | pIC50 (SIK2 [7]) | IL-10 FCmax median [8]
1 | CNc1cc(-c2cnc3cc(-c4cnn(C)c4)ccn23)cc(OC)c1C(=O)NCC(F)(F)F [Cpd 204] | 7.00 to 10.00 | 8.00 to 11.00 | 8.00 to 11.00 | 8.00 to 11.00 | 8.00 to 11.00 | 8.00 to 11.00 | 8.00 to 11.00 | ++ (>1.5-4.5)
2 | CCOC(=O)C(C)Cn1cc(-c2ccn3c(-c4cc(OC)c(C(=O)NCC(F)(F)F)c(OC)c4)cnc3c2)cn1 (stereo not drawn) [Cpd 293, ethyl 3-[4-[3-[3,5-dimethoxy-4-(2,2,2-trifluoroethyl-carbamoyl)phenyl]imidazo[1,2-a]pyridin-7-yl]pyrazol-1-yl]-2-methyl-propanoate] | 7.00 to 10.00 | – | – | – | 8.00 to 11.00 | 8.00 to 11.00 | 8.00 to 11.00 | ++ (>1.5-4.5)
3 | COc1cc(-n2cnc3cc(-c4cnn(C)c4)ccc32)cc(OC)c1C(=O)NC(C)(C)C [compound 76, N-tert-butyl-2,6-dimethoxy-4-[5-(1-methylpyrazol-4-yl)benzimidazol-1-yl]benzamide] | < 5.30 | < 6.30 | < 6.30 | < 6.30 | < 6.30 | < 6.30 | < 6.30 | –
4 | COc1cc(-c2cnc3cc(-c4cnn(C)c4)ccn23)cc(OC)c1C(=O)N1CC(C(F)(F)F)C1 [compound 213, [2,6-dimethoxy-4-[7-(1-methylpvrazol-4-yl)imidazo[1,2-a]pyridin-3-yl]phenyl]-[3-(trifluoromethyl)azetidin-1-yl]methanone] | 7.00 to 10.00 | 8.00 to 11.00 | 8.00 to 11.00 | 8.00 to 11.00 | 8.00 to 11.00 | 8.00 to 11.00 | 8.00 to 11.00 | –
5 | COc1cc(-c2cnc3cc(-c4cnn(C)c4)ccn23)cc2c1C(=O)N(CC(F)(F)F)C2 [compound 261, 7-methoxy-5-[7-(1-methylpyrazol-4-yl)imidazo[l,2-a]pyridin-3-yl]-2-(2,2,2-trifluoroethyl)isoindolin-1-one] | 7.00 to 10.00 | 7.00 to 8.00 | 8.00 to 11.00 | 8.00 to 11.00 | 8.00 to 11.00 | 8.00 to 11.00 | 8.00 to 11.00 | –
6 | COc1cc(-c2cnc3cc(-c4cnn(C5CN(CC#N)C5)c4)ccn23)cc(OC)c1C(=O)NCC(F)(F)F [compound 265, 4-[7-[1-[1-(cyanomethyl)azetidin-3-yl]pyrazol-4-yl]imidazo[1,2-a]pyridin-3-yl]-2,6-dimethoxy-N-(2,2,2-trifluoroethyl)benzamide] | 7.00 to 10.00 | – | – | – | 8.00 to 11.00 | 8.00 to 11.00 | 8.00 to 11.00 | ++ (>1.5-4.5)
7 | COc1ccc(-c2ccn3c(-c4cc(OC)c(C(=O)NC5CC5)c(OC(F)F)c4)cnc3c2)nn1 [compound 280, N-cyclopropyl-2-(difluoromethoxy)-6-methoxy-4-[7-(6-methoxypyridazin-3-yl)imidazo[1,2-a]pyridin-3-yl]benzamide] | 7.00 to 10.00 | – | – | – | 8.00 to 11.00 | 8.00 to 11.00 | 8.00 to 11.00 | ++ (>1.5-4.5)
8 | COc1cc(-c2cnc3cc(-c4cn[nH]c4)ccn23)cc(OC(F)F)c1C(=O)NC1CC1 [compound 307, N-cyclopropyl-2-(difluoromethoxy)-6-methoxy-4-[7-(1H-pyrazol-4-yl)imidazo[1,2-a]pyridin-3-yl]benzamide] | 7.00 to 10.00 | – | – | – | 8.00 to 11.00 | 8.00 to 11.00 | 8.00 to 11.00 | –

The next lines start with results.

Row | pEC50 [1] | pIC50 (SIK1 [2]) | pIC50 (SIK3 [3]) | pIC50 (SIK2 [4]) | pIC50 (SIK1 [5]) | pIC50 (SIK3 [6]) | pIC50 (SIK2 [7]) | SMILES | IL-10 FCmax median [8]
9 | 7.00 to 10.00 | 7.00 to 8.00 | 8.00 to 11.00 | 8.00 to 11.00 | 8.00 to 11.00 | 8.00 to 11.00 | 8.00 to 11.00 | COc1cc(-c2cnc3cc(-c4cnn(C)c4)ccn23)cc2c1C(=O)N(CC(F)(F)F)CC2 [Cpd 225, 8-methoxy-6-[7-(1-methylpyrazol-4-yl)imidazo[1,2-a]pyridin-3-yl]-2-(2,2,2-trifluoroethyl)-3,4-dihydroisoquinolin-1-one] | ++ (>1.5-4.5)
10 | 7.00 to 10.00 | – | – | – | 8.00 to 11.00 | 8.00 to 11.00 | 8.00 to 11.00 | COc1cc(-c2cnc3cc(-c4cnn(C5CN(CCC#N)C5)c4)ccn23)cc(OC)c1C(=O)NCC(F)(F)F [Cpd 264, 4-[7-[1-[1-(2-cyanoethyl)azetidin-3-yl]pyrazol-4-yl]imidazo[1,2-a]pyridin-3-yl]-2,6-dimethoxy-N-(2,2,2-trifluoroethyl)benzamide] | ++ (>1.5-4.5)
11 | 7.00 to 10.00 | – | – | – | 7.00 to 8.00 | 8.00 to 11.00 | 8.00 to 11.00 | COc1cc(-c2cnc3cc(-c4ccc(C)nn4)ccn23)cc2c1C(=O)N(CC(F)(F)F)CC2 [Cpd 275, 8-methoxy-6-[7-(6-methylpyridazin-3-yl)imidazo[1,2-a]pyridin-3-yl]-2-(2,2,2-trifluoroethyl)-3,4-dihydroisoquinolin-1-one] | ++ (>1.5-4.5)
12 | 7.00 to 10.00 | 8.00 to 11.00 | 8.00 to 11.00 | 8.00 to 11.00 | 8.00 to 11.00 | 8.00 to 11.00 | 8.00 to 11.00 | COc1cc(-c2cnc3cc(-c4cnn(C)c4)ccn23)cc(OC)c1C(=O)NCC(F)F [compound 133, N-(2,2-difluoroethyl)-2,6-dimethoxy-4-[7-(1-methylpyrazol-4-yl)imidazo[1,2-a]pyridin-3-yl]benzamide] | ++ (>1.5-4.5)
13 | 5.30 to 6.00 | 6.30 to 7.00 | 6.30 to 7.00 | 7.00 to 8.00 | 6.30 to 7.00 | 7.00 to 8.00 | 7.00 to 8.00 | COc1cc(-c2cnc3cc(-c4cn(C)cn4)ccn23)cc(OC)c1C(=O)N[C@@H](C)C(F)(F)F [compound 216, 2,6-dimethoxy-4-[7-(1-methylimidazol-4-yl)imidazo[1,2-a]pyridin-3-yl]-N-[(1S)-2,2,2-trifluoro-1-methyl-ethyl]benzamide] | –
14 | 6.00 to 7.00 | 6.30 to 7.00 | 8.00 to 11.00 | 7.00 to 8.00 | 6.30 to 7.00 | 8.00 to 11.00 | 7.00 to 8.00 | COc1cc(-c2cnc3cc(-c4cnnc(C)c4)ccn23)cc(OC)c1C(=O)NCC(F)(F)F [compound 252, 2,6-dimethoxy-4-[7-(6-methylpyridazin-4-yl)imidazo[1,2-a]pyridin-3-yl]-N-(2,2,2-trifluoroethyl)benzamide] | –
15 | 7.00 to 10.00 | 7.00 to 8.00 | 8.00 to 11.00 | 8.00 to 11.00 | 8.00 to 11.00 | 8.00 to 11.00 | 8.00 to 11.00 | COc1cc(-c2cnc3cc(-c4cnn(C)c4)ccn23)cc2c1C(=O)N(C1CC1)CC2 [compound 262, 2-cyclopropyl-8-methoxy-6-[7-(1-methylpyrazol-4-yl)imidazo[1,2-a]pyridin-3-yl]-3,4-dihydroisoquinolin-1-one] | –
16 | 6.00 to 7.00 | – | – | – | 7.00 to 8.00 | 8.00 to 11.00 | 8.00 to 11.00 | COc1cc(-c2cnc3cc(-c4cnnc(C)c4)ccn23)cc(OC(F)F)c1C(=O)NC1CC1 [compound 272, N-cyclopropyl-2-(difluoromethoxy)-6-methoxy-4-[7-(6-methylpyridazin-4-yl)imidazo[1,2-a]pyridin-3-yl]benzamide] | ++ (>1.5-4.5)
17 | 6.00 to 7.00 | – | – | – | 8.00 to 11.00 | 8.00 to 11.00 | 8.00 to 11.00 | COc1cc(-c2cnc3cc(-c4cnn(C)c4)ccn23)cc(OCCO)c1C(=O)NC1CC1 [compound 279, N-cyclopropyl-2-(2-hydroxyethoxy)-6-methoxy-4-[7-(1-methylpyrazol-4-yl)imidazo[1,2-a]pyridin-3-yl]benzamide] | ++ (>1.5-4.5)
